Measured values: patent US20240082313A1, “PHARMACEUTICAL COMPOSITIONS AND THEIR METHODS OF USE” (The Trustees of Indiana University, priority 2021, published 2024)

Columns and labels:
[1] = tested on: MDA-MB-231 breast cancer cells; test: Tumor selectivity from MTT-based viability (tumor vs non-tumor cells); type: cell-based, human
Text: (§1) Variations in tumor selectivity among the predicted tumor-suppressing proteins. Tumor-suppressing proteins may inhibit the progression of tumor cells but not inhibit the progression of non-tumor cells. Using the MTT-based viability, tumor selectivity was defined as a ratio of (reduction in MTT-based viability of tumor cells) to (reduction in MTT-based viability of non-tumor cells). The tumor selectivity may be above one to remove tumor cells and a larger value may signify a reduction in the inhibition of the growth of non-tumor cells. The tumor selectivity was determined using three tumor cells (4T1.2 mouse mammary tumor cells, EO771 mammary tumor cells, and MDA-MB-231 breast cancer cells) and three non-tumor cells (adipose cells, MLO-A5 osteocytes, and murine MSCs). […] Table 2 provides the tumor selectivity of 4T1.2 Oct4 CM, 4T1.2 c-Myc CM, and 10 tumor-suppressing protein candidates.

[2] = tested on: 4T1.2 mouse mammary tumor cells; test: as above; type: cell-based
Text: as §1

[3] = tested on: EO771 mammary tumor cells; test: as above; type: cell-based, mouse; details: tumor cells EO
Text: as §1

[4] = tested on: EO771 mammary tumor cells; test: Wound-healing scratch assay; type: cell-based, mouse; details: inhibitor applied with iTS CM
Procedure: Two-dimensional motility assay. A wound-healing scratch motility assay was performed to measure 2-dimensional cell motility. Cells were seeded in 12-well plates, after cell attachment, a plastic pipette tip was used to scratch a gap on the cell layer. Images of the cell-free scratch zone were obtained via an inverted microscope at 0 h, and the areas newly occupied with cells were determined 48 h after scratching. The areas were quantified with Image J (National Institutes of Health, Maryland, USA).
Scratch assay. A wound-healing scratch assay was conducted to evaluate 2-dimensional migratory behavior. Approximately 4×10^5 cells were seeded in 12-well plates. After cell attachment, a plastic pipette tip was used to scratch a gap on the cell layer. After the removal of the floating cells, CM was added. Images of the cell-free scratch zone were collected at 0 h, and the areas newly occupied with cells were determined 24-48 h after scratching. The areas were quantified with IMAGE J™ (National Institutes of Health, Bethesda, MD, USA).

[5] = tested on: EO771 mammary tumor cells; test: TRANSWELL invasion assay; type: cell-based, mouse; details: inhibitor applied with iTS CM
Procedure: Invasion assay. The invasion capacity of cancer cells was determined using a 24-well plate, TRANSWELL® chambers (Thermo Fisher Scientific, Waltham, MA, USA) with […] pore size and MATRIGEL™. Cell invasion was measured in TRANSWELL® chambers with a coating including MATRIGEL™ (100 μg/ml). The cells in 200 μL serum-free DMEM were placed on the upper chamber and 800 μL iTS CM was added in the lower chamber. After 24 h, the cells that had invaded the lower side of the membrane were stained with Crystal Violet. At least five randomly chosen images were taken under a microscope, and the average number of stained cells that represented the relative invasion was determined.

EO771 cells = test: Western blot analysis; type: cell-based, mouse
Procedure: Western blot analysis. Cultured cells were lysed in a radio-immunoprecipitation assay buffer with protease inhibitors (Santa Cruz Biotechnology, Santa Cruz, CA, USA) and phosphatase inhibitors (Calbiochem, Billerica, MA, USA). After cell lysis, proteins were fractionated by 10-15% SDS gels and electro-transferred to polyvinylidene difluoride (“PVDF”) transfer membranes (Millipore, Billerica, MA, USA). After blocking 1 h with a blocking buffer (Bio-Rad), the membrane was incubated overnight with primary antibodies and then with secondary antibodies conjugated with horseradish peroxidase for 45 min (Cell Signaling, Danvers, MA, USA). Antibodies against β-catenin, cleaved-caspase 3, Runx2, Snail, Enolase-1 (Cell Signaling, Danvers, MA, USA), MMP9 (Santa Cruz, Dallas, TX, USA), TRAIL (Novus, Centennial, CO, USA), p53 (Invitrogen, Carlsbad, CA, USA), and β-actin as a control (Sigma, St. Louis, MO, USA), were employed. The level of proteins was determined using a SUPERSIGNAL™ west femto maximum sensitivity substrate (Thermo Scientific, Waltham, MA, USA), and a luminescent image analyzer (LAS-3000, Fuji Film, Tokyo, Japan) was used to quantify signal intensities.

Molecule: Myh9: recombinant protein, tumor-suppressing protein candidate
- Tumor selectivity ([1]; non-tumor cells A5): 0.23
- Tumor selectivity ([1]; non-tumor cells Adipose): 0.46
- Tumor selectivity ([1]; non-tumor cells MSC): 0.66
- Tumor selectivity ([2]; non-tumor cells A5): 0.25
- Tumor selectivity ([2]; non-tumor cells Adipose): 0.48
- Tumor selectivity ([2]; non-tumor cells MSC): 0.70
- Tumor selectivity ([3]; non-tumor cells A5): 0.32
- Tumor selectivity ([3]; non-tumor cells Adipose): 0.64
- Tumor selectivity ([3]; non-tumor cells MSC): 0.93

Molecule: NCCOCCOCCNC(=O)Cc1ccc(Nc2nc(NCc3ccc(F)cc3)nc(NCC3CCCCC3)n2)cc1 [AP-III-a4, reference compound]
- inhibitory effect of β-catenin-overexpressing iTS CM on migration [4]: suppressed the inhibitory effect
- inhibitory effect of β-catenin-overexpressing iTS CM on invasion [5]: suppressed the inhibitory effect

Molecule: Flna: recombinant protein, tumor-suppressing protein candidate
- Tumor selectivity ([1]; non-tumor cells A5): 1.54
- Tumor selectivity ([1]; non-tumor cells Adipose): 1.28
- Tumor selectivity ([1]; non-tumor cells MSC): 1.13
- Tumor selectivity ([2]; non-tumor cells A5): 1.43
- Tumor selectivity ([2]; non-tumor cells Adipose): 1.19
- Tumor selectivity ([2]; non-tumor cells MSC): 1.05
- Tumor selectivity ([3]; non-tumor cells A5): 1.97
- Tumor selectivity ([3]; non-tumor cells Adipose): 1.64
- Tumor selectivity ([3]; non-tumor cells MSC): 1.45

Molecule: Plec: recombinant protein, tumor-suppressing protein candidate
- Tumor selectivity ([1]; non-tumor cells A5): 1.16
- Tumor selectivity ([1]; non-tumor cells Adipose): 1.10
- Tumor selectivity ([1]; non-tumor cells MSC): 0.91
- Tumor selectivity ([2]; non-tumor cells A5): 1.33
- Tumor selectivity ([2]; non-tumor cells Adipose): 1.28
- Tumor selectivity ([2]; non-tumor cells MSC): 1.06
- Tumor selectivity ([3]; non-tumor cells A5): 1.95
- Tumor selectivity ([3]; non-tumor cells Adipose): 1.86
- Tumor selectivity ([3]; non-tumor cells MSC): 1.54

B1: Eef1a1: recombinant protein, tumor-suppressing protein candidate (protein, UniProt P10126 2-462, looked up)
Elongation factor 1-alpha 1: GKEKTHINIVVIGHVDSGKSTTTGHLIYKCGGIDKRTIEKFEKEAAEMGKGSFKYAWVLDKLKAERERGITIDISLWKFETSKYYVTIIDAPGHRDFIKNMITGTSQADCAVLIVAAGVGEFEAGISKNGQTREHALLAYTLGVKQLIVGVNKMDSTEPPYSQKRYEEIVKEVSTYIKKIGYNPDTVAFVPISGWNGDNMLEPSANMPWFKGWKVTRKDGSASGTTLLEALDCILPPTRPTDKPLRLPLQDVYKIGGIGTVPVGRVETGVLKPGMVVTFAPVNVTTEVKSVEMHHEALSEALPGDNVGFNVKNVSVKDVRRGNVAGDSKNDPPMEAAGFTAQVIILNHPGQISAGYAPVLDCHTAHIACKFAELKEKIDRRSGKKLEDGPKFLKSGDAAIVDMVPGKPMCVESFSDYPPLGRFAVRDMRQTVAVGVIKAVDKKAAGAGKVTKSAQKAQKAK
- Tumor selectivity ([1]; non-tumor cells A5): 0.86
- Tumor selectivity ([1]; non-tumor cells Adipose): 0.52
- Tumor selectivity ([1]; non-tumor cells MSC): 0.94
- Tumor selectivity ([2]; non-tumor cells A5): 1.23
- Tumor selectivity ([2]; non-tumor cells Adipose): 0.74
- Tumor selectivity ([2]; non-tumor cells MSC): 1.34
- Tumor selectivity ([3]; non-tumor cells A5): 0.96
- Tumor selectivity ([3]; non-tumor cells Adipose): 0.58
- Tumor selectivity ([3]; non-tumor cells MSC): 1.05

B2: TRAIL: an apoptosis-inducing factor applied to EO771 tumor cells (protein, UniProt P50592 1-291, looked up)
Tumor necrosis factor ligand …: MPSSGALKDLSFSQHFRMMVICIVLLQVLLQAVSVAVTYMYFTNEMKQLQDNYSKIGLACFSKTDEDFWDSTDGEILNRPCLQVKRQLYQLIEEVTLRTFQDTISTVPEKQLSTPPLPRGGRPQKVAAHITGITRRSNSALIPISKDGKTLGQKIESWESSRKGHSFLNHVLFRNGELVIEQEGLYYIYSQTYFRFQEAEDASKMVSKDKVRTKQLVQYIYKYTSYPDPIVLMKSARNSCWSRDAEYGLYSIYQGGLFELKKNDRIFVSVTNEHLMDLDQEASFFGAFLIN
- level of cleaved caspase 3 (EO771 cells): increased

B3: Aldoa: recombinant protein, tumor-suppressing protein candidate (protein, UniProt P05064 2-364, looked up)
Fructose-bisphosphate …: PHPYPALTPEQKKELSDIAHRIVAPGKGILAADESTGSIAKRLQSIGTENTEENRRFYRQLLLTADDRVNPCIGGVILFHETLYQKADDGRPFPQVIKSKGGVVGIKVDKGVVPLAGTNGETTTQGLDGLSERCAQYKKDGADFAKWRCVLKIGEHTPSALAIMENANVLARYASICQQNGIVPIVEPEILPDGDHDLKRCQYVTEKVLAAVYKALSDHHVYLEGTLLKPNMVTPGHACTQKFSNEEIAMATVTALRRTVPPAVTGVTFLSGGQSEEEASINLNAINKCPLLKPWALTFSYGRALQASALKAWGGKKENLKAAQEEYIKRALANSLACQGKYTPSGQSGAAASESLFISNHAY
- Tumor selectivity ([1]; non-tumor cells A5): 1.75
- Tumor selectivity ([1]; non-tumor cells Adipose): 1.97
- Tumor selectivity ([1]; non-tumor cells MSC): 0.90
- Tumor selectivity ([2]; non-tumor cells A5): 2.72
- Tumor selectivity ([2]; non-tumor cells Adipose): 3.06
- Tumor selectivity ([2]; non-tumor cells MSC): 1.39
- Tumor selectivity ([3]; non-tumor cells A5): 1.87
- Tumor selectivity ([3]; non-tumor cells Adipose): 2.10
- Tumor selectivity ([3]; non-tumor cells MSC): 0.96
